For the experiment, the system named is mice. Description: Neuropharmacological Assay (SmartCube): automated behavioral signature of compound-treated mice compared with a database of reference drug classes. Type of experiment: in vivo. The note with it: for minimal effective dose: Mus musculus, ip. An excerpt:
Neurosci. 2011 Sep. 9; 5: 103 (doi: 10.3389/fnins.2011.00103) (“Roberds”). As reported in Roberds, because psychiatric diseases generally result from disorders of cell-cell communication or circuitry, intact systems are useful in detecting improvement in disease-relevant endpoints. These endpoints are typically behavioral in nature, often requiring human observation and interpretation. To facilitate testing of multiple compounds for behavioral effects relevant to psychiatric disease, PsychoGenics, Inc. (Tarrytown, NY, “PGI”) developed SmartCube™ an automated system in which behaviors of compound-treated mice are captured by digital video and analyzed with computer algorithms. (D. Brunner et al. Drug Discov. Today 2002, 7:S107-S112). PGI Analytical Systems uses data from SmartCube™ to compare the behavioral signature of a test compound to a database of behavioral signatures obtained using a large set of diverse reference compounds. (The composition of the database as well as validation of the method is further described in Roberds). In this way, the neuropharmacological effects of a test compound can be predicted by similarity to major classes of compounds, such as antipsychotics, anxiolytics and antidepressants.
The SmartCube™ system produces an activity signature indicating the probability that the activity of the test compound at the administered dose matches a given class of neuropharmacological agents. (See, e.g., Roberds, FIGS. 2 and 3). The test compound is simultaneously compared against multiple classes of agents; thus, a separate probability is generated for each behavioral effect measured (e.g., anxiolytic activity, analgesic activity, etc.). In table 2 below, these probabilities are reported for each behavioral effect measured as described in Table 1 below.
Provided compounds were dissolved in a mixture of Pharmasolve™ (N-methyl-2-pyrrolidone), polyethylene glycol and propylene glycol, and were injected i.p. 15 min. before the behavioral test. For each compound, injections were administered at 3 different doses. For each behavioral effect measured, results for the 3.0 mg/kg dose are presented. The potency of many of the compounds in the table was also determined in the SmartCube™ system. Test compounds were routinely examined at dose levels of 0.3, 1, 3 and 10 mg per kg (mpk), although the dose range was increased or decreased, if necessary, to obtain a full dose response curve. A compound's minimal effective dose (MED) is a measure of the compound's potency. The MED was defined as the dose (in mpk) having 45% or more total activity in SmartCube. If only one dose was tested, that dose is shown in the MED column of Table 2 even though the dose is not known to be the MED.

The mark [1] stands for this setting: minimal effective dose: dose having 45% or more total activity in SmartCube, i.p., if only one dose tested, that dose is shown, read-out: MED.
The mark [2] stands for this setting: SmartCube class probability, 3.0 mg/kg i.p., 15 min before test.
The mark [3] stands for this setting: SmartCube probability class, 3.0 mg/kg dose, i.p. 15 min before the behavioral test.
[4] abbreviates: SmartCube class probability, 3.0 mg/kg i.p., 15 min before test, hydrochloride, 3 mg/kg.
[5] abbreviates: probability that activity matches this class of agents, 3.0 mg/kg i.p., 15 min before test.
The mark [6] stands for this setting: probability that activity matches this class of agents, 3.0 mg/kg i.p., 15 min before test, hydrochloride, 3 mg/kg.

Where a name gives a salt, the structure may show the parent alone. Read-outs that look alike come from different tables or passages of the source. Where only a bound is given, the exact number is not on record here.

This is an account of results in US20260274814A1, “THIENYL COMPOUNDS FOR THE TREATMENT OF A CENTRAL NERVOUS SYSTEM DISEASE OR DISORDER” (Coreterra Therapeutics, Inc., priority 2023, published 2026).

As to `NC1COc2c(C(F)(F)F)csc2C1` (stereo not drawn) [Compound 221, 3-(trifluoromethyl)-6,7-dihydro-5H-thieno[3,2-b]pyran-6-amine hydrochloride], the minimal effective dose under setting [1] was 3 mg/kg. Moreover, under setting [2], the AD entry is reported as “ND (^ <4%)”, the AG result is recorded as “ND (^ <4%)”, the AN entry is “+ (≥4%)” and the AP entry is listed as “ND (^ <4%)”. For the same molecule, under setting [2], the AX entry is reported as “++ (≥24%)”, the CE result is given as “ND (^ <4%)”, the HL result was “+ (≥4%)” and the MS entry was “ND (^ <4%)”. Moreover, under setting [2], the PS result is recorded as “ND (^ <4%)”, the SH result was “ND (^ <4%)” and the UK result is reported as “++ (≥24%)”.

Consider `CNC1CC=Cc2cscc2C1` (stereo not drawn) [Compound 168, N-methyl-5,6-dihydro-4H-cyclohepta[c]thiophen-5-amine hydrochloride], for which, under setting [1], the minimal effective dose was determined as 3 mg/kg. Also, under setting [2], the AD entry is recorded as “ND (^ <4%)”, the AG result is given as “ND (^ <4%)”, the AN entry is reported as “ND (^ <4%)” and the AP result was “+++ (≥49%)”. Also, under setting [2], the AX entry is “ND (^ <4%)”, the CE result was “ND (^ <4%)”, the HL entry was “ND (^ <4%)” and the MS result is given as “ND (^ <4%)”. In addition, under setting [2], the PS entry is “ND (^ <4%)”, the SH result was “ND (^ <4%)” and the UK result was “ND (^ <4%)”.

As to `CNC1COc2c(C)csc2C1` (single isomer, unassigned) [Compound 298, N, 3-dimethyl-6,7-dihydro-5H-thieno[3,2-b]pyran-6-amine hydrochloride], under setting [3], the AD result is recorded as “ND (^ <4%)”, the AG entry was “ND (^ <4%)”, the AN result is given as “ND (^ <4%)” and the AP result was “ND (^ <4%)”. In addition, under setting [3], the CE result is listed as “ND (^ <4%)”, the HL entry is on record as “ND (^ <4%)”, the MS entry is “ND (^ <4%)” and the PS entry is “ND (^ <4%)”. Under setting [3], the SH result is recorded as “ND (^ <4%)” and the UK entry was “ND (^ <4%)”. The AX entry (SmartCube probability class, 3.0 mg/kg dose, i.p. 15 min before the behavioral test, hydrochloride, 3 mg/kg) is reported as “+++ (≥49%)”. For the same molecule, the MED (minimal effective dose: dose having 45% or more total activity in SmartCube, i.p., if only one dose was tested, that dose is shown) stood at 3 mpk.

With `c1scc2c1CCC(NC1CCC1)C2` (single isomer, unassigned) [Compound 160, N-cyclobutyl-4,5,6,7-tetrahydro-2-benzothiophen-5-amine hydrochloride], the minimal effective dose under setting [1] is above 3 mg/kg. In addition, under setting [2], the AD result was “ND (^ <4%)”, the AG entry is “ND (^ <4%)”, the AN result is given as “ND (^ <4%)” and the AP entry was “ND (^ <4%)”. Moreover, under setting [2], the AX result is listed as “ND (^ <4%)”, the CE entry was “ND (^ <4%)”, the HL result is listed as “ND (^ <4%)” and the MS entry is listed as “ND (^ <4%)”. For the same molecule, under setting [2], the PS entry is recorded as “ND (^ <4%)” and the SH result is “ND (^ <4%)”. For the same molecule, under setting [4], the UK entry was “+ (≥4%)”.

For the molecule `CNC1CCc2cc(Cl)sc2C1` (stereo not drawn) [Compound 96, 2-chloro-N-methyl-4,5,6,7-tetrahydrobenzothiophen-6-amine hydrochloride], the minimal effective dose (dose having 45% or more total activity in SmartCube, i.p., if only one dose was tested, that dose is shown, read-out: MED (minimal effective dose)) was determined as 3 mg/kg. In addition, under setting [5], the AD result is reported as “ND (^ <4%)”, the AG entry was “ND (^ <4%)”, the AN entry is on record as “ND (^ <4%)” and the AP result was “+++ (≥49%)”. Under setting [5], the AX entry is on record as “ND (^ <4%)”, the CE entry is given as “ND (^ <4%)”, the HL result is listed as “ND (^ <4%)” and the MS result is given as “ND (^ <4%)”. Under setting [5], the PS result was “ND (^ <4%)”, the SH result is “ND (^ <4%)” and the UK result is given as “ND (^ <4%)”.

As to `CNC1(C)COc2cc(C)sc2C1` (stereo not drawn) [Compound 285, N, 2,6-trimethyl-5,7-dihydrothieno[3,2-b]pyran-6-amine hydrochloride], the minimal effective dose (minimal effective dose: dose having 45% or more total activity in SmartCube, i.p., if only one dose was tested, that dose is shown, read-out: MED) turned out to be 3 mg/kg. In addition, under setting [3], the AD result is “ND (^ <4%)”, the AG entry is on record as “ND (^ <4%)”, the AN result is given as “ND (^ <4%)” and the AP result is on record as “ND (^ <4%)”. For the same molecule, under setting [3], the AX entry is on record as “ND (^ <4%)”, the CE result was “ND (^ <4%)”, the HL entry was “ND (^ <4%)” and the MS entry is on record as “ND (^ <4%)”. Moreover, under setting [3], the PS result was “ND (^ <4%)”, the SH entry was “ND (^ <4%)” and the UK result is given as “+++ (≥49%)”.

On to `CNC1CCc2scc(C(F)(F)F)c2C1.Cl` (single isomer, unassigned) [Compound 195, N-methyl-3-(trifluoromethyl)-4,5,6,7-tetrahydrobenzothiophen-5-amine hydrochloride], for which, under setting [2], the AD entry was “ND (^ <4%)”, the AG result is given as “ND (^ <4%)”, the AN entry was “ND (^ <4%)” and the AX result is “ND (^ <4%)”. Besides, under setting [2], the CE entry was “ND (^ <4%)”, the HL result is “ND (^ <4%)”, the MS entry is “ND (^ <4%)” and the PS result is “ND (^ <4%)”. The SH entry under setting [2] is listed as “ND (^ <4%)”. Besides, under setting [4], the AP entry is recorded as “ND (^ <4%)” and the UK result is “+ (≥4%)”. For the same molecule, under “minimal effective dose: dose having 45% or more total activity in SmartCube, i.p., if only one dose tested, that dose is shown, hydrochloride”, the MED is on record as above 3 mpk.

Regarding `CN(C)C1CCc2sc(Cl)cc2C1` (stereo not drawn) [Compound 189, 2-chloro-N, N-dimethyl-4,5,6,7-tetrahydrobenzothiophen-5-amine hydrochloride], under setting [1], the minimal effective dose is above 3 mg/kg. For the same molecule, under setting [2], the AD entry was “ND (^ <4%)”, the AG result is given as “ND (^ <4%)”, the AN entry is “ND (^ <4%)” and the AP result is listed as “ND (^ <4%)”. In addition, under setting [2], the AX result is given as “ND (^ <4%)”, the CE result is recorded as “ND (^ <4%)”, the HL entry is reported as “ND (^ <4%)” and the MS result is “ND (^ <4%)”. Also, under setting [2], the PS entry is given as “ND (^ <4%)”, the SH entry is reported as “ND (^ <4%)” and the UK result is reported as “++ (≥24%)”.

Regarding `CNC1CCc2csc(F)c2C1` (single isomer, unassigned) [Compound 73, 3-fluoro-N-methyl-4,5,6,7-tetrahydro-2-benzothiophen-5-amine hydrochloride], the “MED (minimal effective dose)” value (dose having 45% or more total activity in SmartCube, i.p., if only one dose was tested, that dose is shown, hydrochloride) turned out to be 1 mpk. In addition, under setting [5], the AG entry is given as “ND (^ <4%)”, the AN result was “ND (^ <4%)”, the CE result is listed as “ND (^ <4%)” and the HL entry is recorded as “ND (^ <4%)”. Besides, under setting [5], the MS entry is recorded as “ND (^ <4%)”, the PS entry is recorded as “ND (^ <4%)”, the SH result was “ND (^ <4%)” and the UK entry was “ND (^ <4%)”. Under setting [6], the AD entry is given as “ND (^ <4%)”, the AP result was “ND (^ <4%)” and the AX result was “++++ (≥74%)”.

On to `NC1CCc2cscc2C1` (single isomer, unassigned) [Compound 167, 4,5,6,7-tetrahydro-2-benzothiophen-5-amine hydrochloride], for which, under setting [2], the AG result is reported as “ND (^ <4%)”, the AN entry is listed as “ND (^ <4%)”, the AX entry is “+++ (≥49%)” and the CE entry is “ND (^ <4%)”. In addition, under setting [2], the HL result is “ND (^ <4%)”, the MS entry is “ND (^ <4%)”, the SH result was “ND (^ <4%)” and the UK result is reported as “ND (^ <4%)”. Also, under setting [4], the AD result is “++ (≥24%)”, the AP entry is “ND (^ <4%)” and the PS entry is “+ (≥4%)”. Besides, the MED (minimal effective dose: dose having 45% or more total activity in SmartCube, i.p., if only one dose tested, that dose is shown) was determined as 1 mpk.
